# Data from publication PMC12420824, “Discovery of a selective alpha-kinase 1 inhibitor for the rare genetic disease ROSAH syndrome” (Nature Communications, 2025).
# Several values for one entry are separate records, joined by “and”; a condition that tells them apart may be missing. Equal values may be shown once.
# Experiments:
# [1] = target: PKN2/PRK2 (Homo sapiens, UniProt Q16513); assay: HotSpot kinase assay; conditions: read-out: % Enzyme Activity (relative to DMSO control), 10 uM
# Excerpt: (§1) Additionally, a 10-dose dilution series of staurosporine and other enzyme-appropriate compounds were included as positive control inhibitors.
# [2] = target: RON/MST1R (Homo sapiens, UniProt Q04912); assay: HotSpot kinase assay; conditions: read-out: % Enzyme Activity (relative to DMSO control), 10 uM
# Excerpt: as §1
# [3] = target: TRKB (Homo sapiens, UniProt Q16620); assay: HotSpot kinase assay; conditions: read-out: % Enzyme Activity (relative to DMSO control), 10 uM
# Chain of TRKB (Q16620 32-822): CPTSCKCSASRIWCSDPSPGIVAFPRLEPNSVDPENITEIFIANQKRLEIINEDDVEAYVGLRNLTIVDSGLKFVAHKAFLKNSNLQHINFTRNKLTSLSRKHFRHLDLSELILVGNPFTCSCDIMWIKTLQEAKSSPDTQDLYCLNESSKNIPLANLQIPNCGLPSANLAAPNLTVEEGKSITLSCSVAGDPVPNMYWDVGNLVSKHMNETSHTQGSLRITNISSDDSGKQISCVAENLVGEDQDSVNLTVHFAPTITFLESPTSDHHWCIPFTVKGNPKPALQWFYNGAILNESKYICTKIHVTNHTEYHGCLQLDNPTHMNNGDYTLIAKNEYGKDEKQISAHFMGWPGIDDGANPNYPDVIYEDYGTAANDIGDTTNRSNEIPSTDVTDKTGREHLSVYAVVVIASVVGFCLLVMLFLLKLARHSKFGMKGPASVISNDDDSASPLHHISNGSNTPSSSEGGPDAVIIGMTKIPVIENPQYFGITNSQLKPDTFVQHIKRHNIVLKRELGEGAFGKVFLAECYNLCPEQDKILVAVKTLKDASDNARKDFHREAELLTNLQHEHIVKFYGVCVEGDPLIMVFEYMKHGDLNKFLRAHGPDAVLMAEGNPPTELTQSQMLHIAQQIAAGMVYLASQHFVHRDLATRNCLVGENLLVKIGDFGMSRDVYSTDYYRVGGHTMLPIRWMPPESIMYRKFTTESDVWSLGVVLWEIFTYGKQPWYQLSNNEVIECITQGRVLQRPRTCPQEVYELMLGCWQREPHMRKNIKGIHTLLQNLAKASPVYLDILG
# [4] = target: MLK3/MAP3K11 (Homo sapiens, UniProt Q16584); assay: HotSpot kinase assay; conditions: read-out: % Enzyme Activity (relative to DMSO control), 10 uM
# Excerpt: as §1
# [5] = target: EPHA6 (Homo sapiens, UniProt Q9UF33); assay: HotSpot kinase assay; conditions: read-out: % Enzyme Activity (relative to DMSO control), 10 uM
# Chain of EPHA6 (Q9UF33 23-1036): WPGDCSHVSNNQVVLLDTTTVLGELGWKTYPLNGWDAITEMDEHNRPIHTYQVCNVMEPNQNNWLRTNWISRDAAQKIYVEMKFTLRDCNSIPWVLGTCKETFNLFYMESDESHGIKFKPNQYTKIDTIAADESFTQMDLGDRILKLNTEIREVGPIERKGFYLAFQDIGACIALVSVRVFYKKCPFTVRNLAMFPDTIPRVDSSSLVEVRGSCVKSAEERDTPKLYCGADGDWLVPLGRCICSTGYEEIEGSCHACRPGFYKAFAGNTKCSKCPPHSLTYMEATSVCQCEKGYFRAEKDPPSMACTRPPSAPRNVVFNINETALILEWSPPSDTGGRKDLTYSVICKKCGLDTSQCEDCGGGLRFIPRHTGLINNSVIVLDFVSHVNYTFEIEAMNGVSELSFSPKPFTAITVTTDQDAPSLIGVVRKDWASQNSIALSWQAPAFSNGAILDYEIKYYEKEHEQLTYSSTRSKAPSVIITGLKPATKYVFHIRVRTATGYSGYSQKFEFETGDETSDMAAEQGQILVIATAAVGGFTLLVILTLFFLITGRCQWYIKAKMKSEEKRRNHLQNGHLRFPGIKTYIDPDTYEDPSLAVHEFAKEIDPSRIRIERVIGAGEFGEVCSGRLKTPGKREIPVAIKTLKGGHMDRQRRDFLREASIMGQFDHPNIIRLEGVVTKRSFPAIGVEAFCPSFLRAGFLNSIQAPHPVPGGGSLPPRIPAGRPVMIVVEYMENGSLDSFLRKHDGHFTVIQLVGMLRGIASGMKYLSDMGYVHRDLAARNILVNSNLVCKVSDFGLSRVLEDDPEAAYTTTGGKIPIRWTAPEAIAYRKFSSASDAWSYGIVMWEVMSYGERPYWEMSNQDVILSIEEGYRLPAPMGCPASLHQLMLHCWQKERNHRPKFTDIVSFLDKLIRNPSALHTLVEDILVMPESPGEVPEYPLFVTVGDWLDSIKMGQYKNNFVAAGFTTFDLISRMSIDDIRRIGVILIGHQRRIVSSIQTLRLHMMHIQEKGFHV
# [6] = target: TIE2/TEK (Homo sapiens, UniProt Q02763); assay: HotSpot kinase assay; conditions: read-out: % Enzyme Activity (relative to DMSO control), 10 uM
# Excerpt: as §1
# [7] = target: MLK1/MAP3K9 (Homo sapiens, UniProt P80192); assay: HotSpot kinase assay; conditions: read-out: % Enzyme Activity (relative to DMSO control), 10 uM
# Excerpt: as §1
# [8] = target: CTK/MATK (Homo sapiens, UniProt P42679); assay: HotSpot kinase assay; conditions: read-out: % Enzyme Activity (relative to DMSO control), 10 uM
# Excerpt: as §1
# [9] = target: MLCK2/MYLK2 (Homo sapiens, UniProt Q9H1R3); assay: HotSpot kinase assay; conditions: read-out: % Enzyme Activity (relative to DMSO control), 10 uM
# Excerpt: as §1
# [10] = target: PKCb2 (Homo sapiens, UniProt P05771); assay: HotSpot kinase assay; conditions: read-out: % Enzyme Activity (relative to DMSO control), 10 uM
# Excerpt: as §1
# [11] = target: LIMK2 (Homo sapiens, UniProt P53671); assay: HotSpot kinase assay; conditions: read-out: % Enzyme Activity (relative to DMSO control), 10 uM
# Chain of LIMK2 (P53671 whole entry): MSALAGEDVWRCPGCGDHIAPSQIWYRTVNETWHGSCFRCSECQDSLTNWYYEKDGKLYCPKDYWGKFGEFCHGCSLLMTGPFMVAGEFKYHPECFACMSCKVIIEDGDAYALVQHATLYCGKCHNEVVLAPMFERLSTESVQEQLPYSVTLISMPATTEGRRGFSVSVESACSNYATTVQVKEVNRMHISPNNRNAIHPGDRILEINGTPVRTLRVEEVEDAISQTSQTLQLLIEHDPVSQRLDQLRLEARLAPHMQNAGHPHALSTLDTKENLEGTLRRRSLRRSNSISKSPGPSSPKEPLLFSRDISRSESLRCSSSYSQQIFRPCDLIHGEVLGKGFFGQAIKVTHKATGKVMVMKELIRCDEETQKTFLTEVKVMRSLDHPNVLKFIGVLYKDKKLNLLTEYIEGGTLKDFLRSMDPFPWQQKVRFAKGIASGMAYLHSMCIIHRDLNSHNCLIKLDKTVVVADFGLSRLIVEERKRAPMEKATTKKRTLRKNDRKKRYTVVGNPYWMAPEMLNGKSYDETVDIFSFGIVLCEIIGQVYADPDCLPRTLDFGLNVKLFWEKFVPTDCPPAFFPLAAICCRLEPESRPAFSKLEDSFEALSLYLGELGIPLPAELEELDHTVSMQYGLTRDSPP
# Excerpt: as §1
# [12] = target: PDK2/PDHK2 (Homo sapiens, UniProt Q15119); assay: HotSpot kinase assay; conditions: read-out: % Enzyme Activity (relative to DMSO control), 10 uM
# [13] = target: AMPK (A2/B1/G3) (Homo sapiens, UniProt P54646); assay: HotSpot kinase assay; conditions: read-out: % Enzyme Activity (relative to DMSO control), 10 uM
# Excerpt: as §1
# [14] = target: ABL1 (Homo sapiens, UniProt P00519); assay: HotSpot kinase assay; conditions: read-out: % Enzyme Activity (relative to DMSO control), 10 uM
# Excerpt: as §1
# [15] = target: c-MER (Homo sapiens, UniProt Q12866); assay: HotSpot kinase assay; conditions: read-out: % Enzyme Activity (relative to DMSO control), 10 uM
# Excerpt: as §1
# [16] = target: STK38/NDR1 (Homo sapiens, UniProt Q15208); assay: HotSpot kinase assay; conditions: read-out: % Enzyme Activity (relative to DMSO control), 10 uM
# Excerpt: as §1
# [17] = target: HCK (Homo sapiens, UniProt P08631); assay: HotSpot kinase assay; conditions: read-out: % Enzyme Activity (relative to DMSO control), 10 uM
# [18] = target: ALK2/ACVR1 (Homo sapiens, UniProt Q04771); assay: HotSpot kinase assay; conditions: read-out: % Enzyme Activity (relative to DMSO control), 10 uM
# [19] = target: BRSK2 (Homo sapiens, UniProt Q8IWQ3); assay: HotSpot kinase assay; conditions: read-out: % Enzyme Activity (relative to DMSO control), 10 uM
# Excerpt: as §1
# [20] = target: LIMK1 (Homo sapiens, UniProt P53667); assay: HotSpot kinase assay; conditions: read-out: % Enzyme Activity (relative to DMSO control), 10 uM
# [21] = target: FYN (Homo sapiens, UniProt P06241); assay: HotSpot kinase assay; conditions: read-out: % Enzyme Activity (relative to DMSO control), 10 uM
# [22] = target: TNK1 (Homo sapiens, UniProt Q13470); assay: HotSpot kinase assay; conditions: read-out: % Enzyme Activity (relative to DMSO control), 10 uM
# Excerpt: as §1
# [23] = target: EIF2AK4 (Homo sapiens, UniProt Q9P2K8); assay: HotSpot kinase assay; conditions: read-out: % Enzyme Activity (relative to DMSO control), 10 uM
# Excerpt: as §1
# [24] = target: TAK1 (Homo sapiens, UniProt O43318); assay: HotSpot kinase assay; conditions: read-out: % Enzyme Activity (relative to DMSO control), 10 uM
# Excerpt: as §1
# [25] = target: CDK2/cyclin O (Homo sapiens, UniProt P24941); assay: HotSpot kinase assay; conditions: read-out: % Enzyme Activity (relative to DMSO control), 10 uM
# [26] = target: MARK1 (Homo sapiens, UniProt Q9P0L2); assay: HotSpot kinase assay; conditions: read-out: % Enzyme Activity (relative to DMSO control), 10 uM
# Chain of MARK1 (Q9P0L2 whole entry): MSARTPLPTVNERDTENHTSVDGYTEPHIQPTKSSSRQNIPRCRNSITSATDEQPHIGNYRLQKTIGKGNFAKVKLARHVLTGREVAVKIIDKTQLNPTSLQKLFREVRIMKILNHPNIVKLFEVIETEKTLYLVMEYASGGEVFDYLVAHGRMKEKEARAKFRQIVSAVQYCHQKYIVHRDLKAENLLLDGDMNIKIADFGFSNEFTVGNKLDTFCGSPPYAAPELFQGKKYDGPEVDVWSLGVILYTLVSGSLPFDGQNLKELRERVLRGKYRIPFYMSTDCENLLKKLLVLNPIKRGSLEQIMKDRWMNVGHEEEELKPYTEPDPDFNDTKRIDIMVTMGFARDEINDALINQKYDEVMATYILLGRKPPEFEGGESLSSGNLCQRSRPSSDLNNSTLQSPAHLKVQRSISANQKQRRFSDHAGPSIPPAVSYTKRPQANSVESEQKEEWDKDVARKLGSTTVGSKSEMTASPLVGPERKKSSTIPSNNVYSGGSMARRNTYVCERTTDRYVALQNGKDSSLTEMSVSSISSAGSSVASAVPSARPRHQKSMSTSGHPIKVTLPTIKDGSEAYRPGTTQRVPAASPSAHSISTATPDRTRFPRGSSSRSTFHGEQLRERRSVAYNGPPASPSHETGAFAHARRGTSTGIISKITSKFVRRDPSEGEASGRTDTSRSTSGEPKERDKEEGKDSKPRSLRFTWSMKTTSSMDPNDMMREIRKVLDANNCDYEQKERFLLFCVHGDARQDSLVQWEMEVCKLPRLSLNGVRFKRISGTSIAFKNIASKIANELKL
# [27] = target: EIF2AK2 (Homo sapiens, UniProt P19525); assay: HotSpot kinase assay; conditions: read-out: % Enzyme Activity (relative to DMSO control), 10 uM
# Chain of EIF2AK2 (P19525 whole entry): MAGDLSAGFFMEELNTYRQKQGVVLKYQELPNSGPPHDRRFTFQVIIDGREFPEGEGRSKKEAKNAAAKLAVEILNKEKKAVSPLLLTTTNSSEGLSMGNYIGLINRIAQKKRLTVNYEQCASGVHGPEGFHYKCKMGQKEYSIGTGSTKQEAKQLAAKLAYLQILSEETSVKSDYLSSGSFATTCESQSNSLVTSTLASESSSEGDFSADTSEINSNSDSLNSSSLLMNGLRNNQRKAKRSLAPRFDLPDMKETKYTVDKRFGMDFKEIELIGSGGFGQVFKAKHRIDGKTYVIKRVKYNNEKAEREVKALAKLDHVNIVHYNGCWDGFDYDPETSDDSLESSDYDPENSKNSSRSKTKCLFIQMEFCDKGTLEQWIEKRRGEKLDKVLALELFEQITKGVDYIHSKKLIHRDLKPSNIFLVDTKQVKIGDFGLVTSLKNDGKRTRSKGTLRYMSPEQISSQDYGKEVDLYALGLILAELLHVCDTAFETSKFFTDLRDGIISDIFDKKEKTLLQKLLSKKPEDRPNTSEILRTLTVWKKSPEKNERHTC
# Excerpt: as §1
# [28] = target: GRK4 (Homo sapiens, UniProt P32298); assay: HotSpot kinase assay; conditions: read-out: % Enzyme Activity (relative to DMSO control), 10 uM
# Excerpt: as §1
# [29] = target: VRK2 (Homo sapiens, UniProt Q86Y07); assay: HotSpot kinase assay; conditions: read-out: % Enzyme Activity (relative to DMSO control), 10 uM
# [30] = target: VRK1 (Homo sapiens, UniProt Q99986); assay: HotSpot kinase assay; conditions: read-out: % Enzyme Activity (relative to DMSO control), 10 uM
# Excerpt: as §1
# [31] = target: EPHA1 (Homo sapiens, UniProt P21709); assay: HotSpot kinase assay; conditions: read-out: % Enzyme Activity (relative to DMSO control), 10 uM
# [32] = target: SNARK/NUAK2 (Homo sapiens, UniProt Q9H093); assay: HotSpot kinase assay; conditions: read-out: % Enzyme Activity (relative to DMSO control), 10 uM
# Excerpt: as §1
# [33] = tested on: HEK-293 cells stably overexpressing ALPK1; assay: Supernatant CXCL8 ELISA; conditions: ALPK1 OE
# Description: In (a) each dot represents a single well measurement. […] Each dot represents the mean of duplicate technical repeats. c NF-κB reporter cells were transiently transfected with plasmids to overexpress human ALPK1 or ALPK1[T237M]. […] Supernatant CXCL8 levels were then measured by ELISA. In c−f data represent the mean ± SEM for the triplicate wells of each treatment group. Statistical outliers were determined using Grubb’s test and indicated in the Source Data file. In (d) statistical comparisons to the wild-type ALPK1-overexpressing stable cell line group were made using the two-tailed unpaired Student’s t-tests. In (b−f) curve fitting and IC50 value calculations were performed with GraphPad Prism 6.
# To obtain HEK-293 cells stably overexpressing ALPK1 or ALPK1[T237M], codon-optimized DNA coding sequencing for Flag-tagged human ALPK1 and ALPK1[T237M] were inserted into the pcDNA3.1 vector. Plasmids were transfected into HEK-293 cells using Lipofectamine 2000 as per the manufacturer’s protocol. At 48 h post-transfection, G418 (#A1720, Sigma-Aldrich, St. Louis, MO, USA) was used to select resistant transformed cells, and single-cell clones were prepared through a limiting dilution-based approach. Western blotting (See Below) was used to assess Flag-tagged ALPK1 and ALPK1[T237M] overexpression. […] Cells were then harvested to analyze the expression of CXCL10, TNF, and CXCL8 by qPCR (See Below).
# [34] = tested on: hALPK1-KI mice; assay: Retinal microglia (IBA1-positive cells); conditions: individual animals
# Chain of PKN2/PRK2 (Q16513 whole entry): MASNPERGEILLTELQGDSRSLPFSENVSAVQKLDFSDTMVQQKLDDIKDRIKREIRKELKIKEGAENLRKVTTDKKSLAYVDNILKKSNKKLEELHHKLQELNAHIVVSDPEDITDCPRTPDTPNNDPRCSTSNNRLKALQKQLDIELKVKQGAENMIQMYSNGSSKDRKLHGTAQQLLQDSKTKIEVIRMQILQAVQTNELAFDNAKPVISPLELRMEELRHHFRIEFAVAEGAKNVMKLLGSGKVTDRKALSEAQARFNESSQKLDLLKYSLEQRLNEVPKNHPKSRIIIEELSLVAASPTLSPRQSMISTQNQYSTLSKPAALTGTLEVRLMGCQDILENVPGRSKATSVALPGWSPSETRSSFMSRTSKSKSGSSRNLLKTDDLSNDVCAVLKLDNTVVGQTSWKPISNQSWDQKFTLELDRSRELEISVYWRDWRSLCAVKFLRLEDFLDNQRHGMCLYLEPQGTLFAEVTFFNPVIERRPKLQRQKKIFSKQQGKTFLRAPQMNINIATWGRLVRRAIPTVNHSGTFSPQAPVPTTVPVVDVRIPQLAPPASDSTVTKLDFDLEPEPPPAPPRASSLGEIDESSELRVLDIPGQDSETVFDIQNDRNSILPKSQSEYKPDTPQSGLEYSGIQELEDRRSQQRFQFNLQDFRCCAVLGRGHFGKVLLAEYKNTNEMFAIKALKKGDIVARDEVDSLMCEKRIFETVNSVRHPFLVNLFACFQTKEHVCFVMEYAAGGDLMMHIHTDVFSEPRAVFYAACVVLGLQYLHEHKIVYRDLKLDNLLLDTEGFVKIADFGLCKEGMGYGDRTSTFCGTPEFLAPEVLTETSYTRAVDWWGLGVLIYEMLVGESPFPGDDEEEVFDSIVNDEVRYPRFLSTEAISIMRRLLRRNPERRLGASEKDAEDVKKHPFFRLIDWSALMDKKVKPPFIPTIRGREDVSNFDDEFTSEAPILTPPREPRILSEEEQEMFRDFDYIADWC
compound,measurement,setting,value
C#C[C@@](C)(c1ccc(Cl)cc1)c1csc(NC(=O)c2c(F)cc(N3CCNCC3)cc2F)n1 (stereo in doubt) [DF-003],remaining activity at 10 µM,[1],61.3%
same,remaining activity at 10 µM,[2],61.5%
same,remaining activity at 10 µM,[3],74.4%
same,remaining activity at 10 µM,[4],77.8%
same,remaining activity at 10 µM,[5],79.3%
same,remaining activity at 10 µM,[6],79.5%
same,remaining activity at 10 µM,[7],79.7%
same,remaining activity at 10 µM,[8],80.2%
same,remaining activity at 10 µM,[9],81.3%
same,remaining activity at 10 µM,[10],85.2%
same,remaining activity at 10 µM,[11],85.2%
same,remaining activity at 10 µM,[12],85.3%
same,remaining activity at 10 µM,[13],87.3%
same,remaining activity at 10 µM,[14],87.7%
same,remaining activity at 10 µM,[15],89.5%
same,remaining activity at 10 µM,[16],90%
same,remaining activity at 10 µM,[17],91%
same,remaining activity at 10 µM,[18],92.7%
same,remaining activity at 10 µM,[19],96%
same,remaining activity at 10 µM,[20],98.3%
same,remaining activity at 10 µM,[21],98.7%
same,remaining activity at 10 µM,[22],100%
same,remaining activity at 10 µM,[23],101%
same,remaining activity at 10 µM,[24],102%
same,remaining activity at 10 µM,[25],103%
same,remaining activity at 10 µM,[26],104%
same,remaining activity at 10 µM,[27],105%
same,remaining activity at 10 µM,[28],108%
same,remaining activity at 10 µM,[29],113%
same,remaining activity at 10 µM,[30],117%
same,remaining activity at 10 µM,[31],119%
same,remaining activity at 10 µM,[32],124%
same,Supernatant CXCL8 level (ELISA),[33]; Log [DF-003 (nM)] 0.3035,652.652 and 657.101 and 652.360
same,Supernatant CXCL8 level (ELISA),[33]; Log [DF-003 (nM)] 0.8032,717.775 and 649.393 and 582.315
same,Supernatant CXCL8 level (ELISA),[33]; Log [DF-003 (nM)] 1.3029,735.124 and 626.517 and 638.135
same,Supernatant CXCL8 level (ELISA),[33]; Log [DF-003 (nM)] 2.8020,0.000
same,Supernatant CXCL8 level (ELISA),[33]; Log [DF-003 (nM)] 3.3017,0.000
same,Supernatant CXCL8 level (ELISA),[33]; Log [DF-003 (nM)] 3.8013,0.000
same,Supernatant CXCL8 level (ELISA),[33]; Log [DF-003 (nM)] -0.1962,619.393 and 689.438 and 663.124
same,Iba1 positive cells in 200 μm INL (Inner nuclear layer),"[34]; DF-003 3mpk, 3 mg/kg",0.00 and 0.04 and 0.08
same,Iba1 positive cells in 200 μm ONL (Outer nuclear layer),"[34]; DF-003 3mpk, 3 mg/kg",0.00 and 0.08 and 0.04
same,Iba1 positive cells in 200 μm INL (Inner nuclear layer),"[34]; DF-003 5mpk, 5 mg/kg",0.00 and 0.04 and 0.11
same,Iba1 positive cells in 200 μm ONL (Outer nuclear layer),"[34]; DF-003 5mpk, 5 mg/kg",0.08 and 0.06 and 0.00 and 0.04
